Experiments:
Assay in all cases: KinomeScan kinase panel, single concentration 10 µM
Assay type in all cases: binding
[1] = molecular target: T1, KinomeScan kinase panel (Homo sapiens, UniProt P27448); settings: MARK3, 10 µM; read-out: score (%)
T1 construct: purchased DiscoveRx (KinomeScan)

[2] = molecular target: T2, KinomeScan kinase panel (Homo sapiens, UniProt Q15831); settings: LKB1, 10 µM; read-out: score (%)
T2 construct: purchased DiscoveRx (KinomeScan)
T2 sequence (Q15831 1-433): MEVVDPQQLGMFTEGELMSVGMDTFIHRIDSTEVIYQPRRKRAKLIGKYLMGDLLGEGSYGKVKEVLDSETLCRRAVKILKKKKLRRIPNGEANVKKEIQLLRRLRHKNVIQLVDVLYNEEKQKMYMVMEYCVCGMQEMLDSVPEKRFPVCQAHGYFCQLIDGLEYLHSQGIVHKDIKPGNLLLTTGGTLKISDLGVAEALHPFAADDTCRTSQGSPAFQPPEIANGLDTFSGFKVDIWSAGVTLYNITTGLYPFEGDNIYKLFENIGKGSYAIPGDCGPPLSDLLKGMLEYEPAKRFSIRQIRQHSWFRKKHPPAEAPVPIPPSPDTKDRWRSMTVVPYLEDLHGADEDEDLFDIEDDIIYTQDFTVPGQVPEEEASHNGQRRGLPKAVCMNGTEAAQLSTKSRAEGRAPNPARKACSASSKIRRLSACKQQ

[3] = molecular target: T3, KinomeScan kinase panel (Homo sapiens, UniProt Q08345); settings: DDR1, 10 µM; read-out: score (%)
T3 construct: purchased DiscoveRx (KinomeScan)
T3 sequence (Q08345 19-913): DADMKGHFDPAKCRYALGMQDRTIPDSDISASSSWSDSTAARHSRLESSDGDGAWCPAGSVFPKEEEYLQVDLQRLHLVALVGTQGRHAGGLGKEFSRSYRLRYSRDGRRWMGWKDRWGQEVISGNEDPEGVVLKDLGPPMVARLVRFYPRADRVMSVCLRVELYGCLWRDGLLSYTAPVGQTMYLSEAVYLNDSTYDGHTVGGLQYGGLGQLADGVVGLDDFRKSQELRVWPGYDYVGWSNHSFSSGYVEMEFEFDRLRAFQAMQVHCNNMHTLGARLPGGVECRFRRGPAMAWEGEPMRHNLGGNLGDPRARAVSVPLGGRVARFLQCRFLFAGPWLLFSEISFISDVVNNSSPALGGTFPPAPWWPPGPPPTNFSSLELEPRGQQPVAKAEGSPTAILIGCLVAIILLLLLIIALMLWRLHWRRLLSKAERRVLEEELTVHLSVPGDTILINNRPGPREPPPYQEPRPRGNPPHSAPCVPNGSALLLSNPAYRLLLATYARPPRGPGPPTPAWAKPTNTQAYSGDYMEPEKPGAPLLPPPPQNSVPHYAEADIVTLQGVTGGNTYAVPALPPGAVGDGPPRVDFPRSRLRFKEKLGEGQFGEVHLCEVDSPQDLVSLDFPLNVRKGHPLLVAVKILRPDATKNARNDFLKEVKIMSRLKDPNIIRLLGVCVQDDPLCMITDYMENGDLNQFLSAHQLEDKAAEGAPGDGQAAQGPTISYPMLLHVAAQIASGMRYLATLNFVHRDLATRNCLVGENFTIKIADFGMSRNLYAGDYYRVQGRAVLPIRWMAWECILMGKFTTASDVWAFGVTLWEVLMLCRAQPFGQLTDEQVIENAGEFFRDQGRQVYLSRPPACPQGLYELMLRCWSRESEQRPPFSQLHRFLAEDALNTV

[4] = molecular target: T4, KinomeScan kinase panel (Homo sapiens, UniProt Q9P2K8, S808G); settings: GCN2(Kin.Dom.2.S808G), 10 µM; read-out: score (%)
T4 construct: purchased DiscoveRx (KinomeScan)
T4 sequence (Q9P2K8 whole entry S808G): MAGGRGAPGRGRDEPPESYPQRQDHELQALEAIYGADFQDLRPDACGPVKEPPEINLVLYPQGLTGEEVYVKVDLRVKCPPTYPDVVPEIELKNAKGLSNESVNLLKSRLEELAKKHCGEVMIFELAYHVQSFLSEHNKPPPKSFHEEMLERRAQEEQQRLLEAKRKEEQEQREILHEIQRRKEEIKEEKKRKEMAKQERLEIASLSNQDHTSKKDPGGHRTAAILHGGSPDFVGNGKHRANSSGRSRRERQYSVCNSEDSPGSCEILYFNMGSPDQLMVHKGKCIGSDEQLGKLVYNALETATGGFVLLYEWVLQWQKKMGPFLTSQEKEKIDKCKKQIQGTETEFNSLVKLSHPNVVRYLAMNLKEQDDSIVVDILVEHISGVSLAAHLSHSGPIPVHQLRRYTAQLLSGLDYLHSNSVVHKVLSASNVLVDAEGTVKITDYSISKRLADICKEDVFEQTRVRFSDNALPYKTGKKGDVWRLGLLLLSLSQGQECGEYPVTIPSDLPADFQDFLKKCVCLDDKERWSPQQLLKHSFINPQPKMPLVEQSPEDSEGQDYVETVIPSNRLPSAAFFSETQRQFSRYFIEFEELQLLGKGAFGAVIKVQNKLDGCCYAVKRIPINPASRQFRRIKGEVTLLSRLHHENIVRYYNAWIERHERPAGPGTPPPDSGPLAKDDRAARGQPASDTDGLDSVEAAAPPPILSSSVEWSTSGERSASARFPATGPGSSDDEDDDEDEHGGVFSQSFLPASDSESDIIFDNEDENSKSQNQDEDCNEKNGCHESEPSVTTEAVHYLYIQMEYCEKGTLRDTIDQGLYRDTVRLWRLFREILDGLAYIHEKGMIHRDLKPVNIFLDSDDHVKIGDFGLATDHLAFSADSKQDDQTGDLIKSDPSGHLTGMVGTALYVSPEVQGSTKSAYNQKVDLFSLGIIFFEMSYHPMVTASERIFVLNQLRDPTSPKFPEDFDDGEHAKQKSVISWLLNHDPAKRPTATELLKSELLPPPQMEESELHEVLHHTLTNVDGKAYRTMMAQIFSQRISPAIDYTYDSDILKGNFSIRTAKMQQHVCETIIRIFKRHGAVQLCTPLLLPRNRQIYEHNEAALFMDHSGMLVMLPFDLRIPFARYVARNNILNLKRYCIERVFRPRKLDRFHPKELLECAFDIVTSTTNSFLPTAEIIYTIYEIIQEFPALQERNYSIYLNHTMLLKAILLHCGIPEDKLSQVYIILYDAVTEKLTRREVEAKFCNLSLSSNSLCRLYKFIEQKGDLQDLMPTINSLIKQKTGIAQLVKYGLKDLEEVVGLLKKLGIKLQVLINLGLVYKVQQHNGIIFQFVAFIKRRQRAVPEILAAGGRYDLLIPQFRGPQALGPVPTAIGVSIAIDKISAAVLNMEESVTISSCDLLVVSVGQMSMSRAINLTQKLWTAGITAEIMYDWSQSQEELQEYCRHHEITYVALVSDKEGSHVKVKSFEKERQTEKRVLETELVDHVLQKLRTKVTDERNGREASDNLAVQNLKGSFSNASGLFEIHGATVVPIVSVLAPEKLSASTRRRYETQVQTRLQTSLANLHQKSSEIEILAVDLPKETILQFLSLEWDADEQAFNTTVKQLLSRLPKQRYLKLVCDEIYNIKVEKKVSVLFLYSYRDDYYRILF

[5] = molecular target: T5, KinomeScan kinase panel (Homo sapiens, UniProt O14976); settings: GAK, 10 µM; read-out: score (%)
T5 construct: purchased DiscoveRx (KinomeScan)
T5 sequence (O14976 1-1311): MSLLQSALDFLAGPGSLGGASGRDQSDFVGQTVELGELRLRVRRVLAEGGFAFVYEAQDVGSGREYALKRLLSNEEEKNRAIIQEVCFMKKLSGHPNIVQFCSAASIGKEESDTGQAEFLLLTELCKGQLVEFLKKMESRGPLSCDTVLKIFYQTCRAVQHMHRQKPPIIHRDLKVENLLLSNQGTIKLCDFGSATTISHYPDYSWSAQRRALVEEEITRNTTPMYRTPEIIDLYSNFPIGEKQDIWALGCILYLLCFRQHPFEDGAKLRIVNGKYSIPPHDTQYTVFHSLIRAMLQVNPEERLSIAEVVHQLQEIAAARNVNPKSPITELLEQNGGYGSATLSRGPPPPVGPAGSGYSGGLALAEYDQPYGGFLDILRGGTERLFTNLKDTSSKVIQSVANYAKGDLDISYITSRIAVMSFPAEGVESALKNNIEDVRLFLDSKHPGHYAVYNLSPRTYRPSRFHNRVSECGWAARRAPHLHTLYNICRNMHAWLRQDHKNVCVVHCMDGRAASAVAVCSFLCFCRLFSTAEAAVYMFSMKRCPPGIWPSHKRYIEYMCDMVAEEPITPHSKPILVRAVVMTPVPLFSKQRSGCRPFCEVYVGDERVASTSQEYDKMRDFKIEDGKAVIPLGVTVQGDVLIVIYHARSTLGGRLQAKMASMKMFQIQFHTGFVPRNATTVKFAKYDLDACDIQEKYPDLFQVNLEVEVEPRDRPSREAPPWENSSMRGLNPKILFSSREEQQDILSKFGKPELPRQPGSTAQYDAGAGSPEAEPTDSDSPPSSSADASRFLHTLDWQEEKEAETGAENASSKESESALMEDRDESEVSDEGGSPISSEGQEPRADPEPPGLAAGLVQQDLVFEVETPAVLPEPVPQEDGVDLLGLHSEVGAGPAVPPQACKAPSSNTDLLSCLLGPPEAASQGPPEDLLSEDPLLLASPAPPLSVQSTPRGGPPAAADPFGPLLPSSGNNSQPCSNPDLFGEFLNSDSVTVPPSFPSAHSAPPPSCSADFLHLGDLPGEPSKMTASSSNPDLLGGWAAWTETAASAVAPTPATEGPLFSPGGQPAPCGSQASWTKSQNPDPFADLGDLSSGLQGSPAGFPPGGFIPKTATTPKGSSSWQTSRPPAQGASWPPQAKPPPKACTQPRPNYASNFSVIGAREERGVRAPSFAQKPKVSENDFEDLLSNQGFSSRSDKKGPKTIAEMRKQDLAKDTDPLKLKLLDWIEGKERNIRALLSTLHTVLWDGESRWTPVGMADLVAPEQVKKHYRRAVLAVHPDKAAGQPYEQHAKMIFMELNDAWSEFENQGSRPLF

[6] = molecular target: T6, KinomeScan kinase panel (Homo sapiens, UniProt P36894); settings: BMPR1A, 10 µM; read-out: score (%)
T6 construct: purchased DiscoveRx (KinomeScan)
T6 sequence (P36894 24-532): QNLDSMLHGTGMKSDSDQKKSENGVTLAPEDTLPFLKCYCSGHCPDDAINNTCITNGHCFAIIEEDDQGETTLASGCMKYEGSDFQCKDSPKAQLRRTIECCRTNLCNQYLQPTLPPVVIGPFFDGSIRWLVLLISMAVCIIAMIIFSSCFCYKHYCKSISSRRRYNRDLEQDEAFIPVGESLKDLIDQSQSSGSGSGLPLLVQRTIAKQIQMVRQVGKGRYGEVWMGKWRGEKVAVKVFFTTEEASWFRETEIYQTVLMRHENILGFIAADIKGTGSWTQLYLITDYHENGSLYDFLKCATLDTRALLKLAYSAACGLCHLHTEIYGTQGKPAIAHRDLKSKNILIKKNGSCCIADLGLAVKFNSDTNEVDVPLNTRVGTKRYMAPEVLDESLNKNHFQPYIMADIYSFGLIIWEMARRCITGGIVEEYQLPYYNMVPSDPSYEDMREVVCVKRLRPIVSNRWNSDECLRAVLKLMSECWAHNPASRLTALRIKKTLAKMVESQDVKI

[7] = molecular target: T7, KinomeScan kinase panel (Homo sapiens, UniProt Q9C098); settings: DCAMKL3, 10 µM; read-out: score (%)
T7 construct: purchased DiscoveRx (KinomeScan)
T7 sequence (Q9C098 whole entry): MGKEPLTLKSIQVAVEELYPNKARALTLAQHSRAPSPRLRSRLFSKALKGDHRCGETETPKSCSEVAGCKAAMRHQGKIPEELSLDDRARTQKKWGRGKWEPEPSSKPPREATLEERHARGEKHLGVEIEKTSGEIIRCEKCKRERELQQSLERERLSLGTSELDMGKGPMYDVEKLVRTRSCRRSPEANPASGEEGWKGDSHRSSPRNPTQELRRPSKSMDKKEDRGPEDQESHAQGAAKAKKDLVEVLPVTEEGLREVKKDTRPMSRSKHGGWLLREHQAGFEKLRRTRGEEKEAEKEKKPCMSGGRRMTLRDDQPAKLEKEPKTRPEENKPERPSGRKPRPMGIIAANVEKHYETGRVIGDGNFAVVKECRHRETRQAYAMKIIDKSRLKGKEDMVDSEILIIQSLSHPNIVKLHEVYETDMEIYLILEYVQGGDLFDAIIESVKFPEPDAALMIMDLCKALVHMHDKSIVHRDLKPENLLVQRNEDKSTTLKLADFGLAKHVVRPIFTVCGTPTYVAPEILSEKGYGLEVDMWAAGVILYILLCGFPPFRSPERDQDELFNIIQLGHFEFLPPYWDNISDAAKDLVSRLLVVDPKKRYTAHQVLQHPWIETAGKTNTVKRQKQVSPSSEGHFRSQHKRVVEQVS

T1 sequence (P27448 whole entry): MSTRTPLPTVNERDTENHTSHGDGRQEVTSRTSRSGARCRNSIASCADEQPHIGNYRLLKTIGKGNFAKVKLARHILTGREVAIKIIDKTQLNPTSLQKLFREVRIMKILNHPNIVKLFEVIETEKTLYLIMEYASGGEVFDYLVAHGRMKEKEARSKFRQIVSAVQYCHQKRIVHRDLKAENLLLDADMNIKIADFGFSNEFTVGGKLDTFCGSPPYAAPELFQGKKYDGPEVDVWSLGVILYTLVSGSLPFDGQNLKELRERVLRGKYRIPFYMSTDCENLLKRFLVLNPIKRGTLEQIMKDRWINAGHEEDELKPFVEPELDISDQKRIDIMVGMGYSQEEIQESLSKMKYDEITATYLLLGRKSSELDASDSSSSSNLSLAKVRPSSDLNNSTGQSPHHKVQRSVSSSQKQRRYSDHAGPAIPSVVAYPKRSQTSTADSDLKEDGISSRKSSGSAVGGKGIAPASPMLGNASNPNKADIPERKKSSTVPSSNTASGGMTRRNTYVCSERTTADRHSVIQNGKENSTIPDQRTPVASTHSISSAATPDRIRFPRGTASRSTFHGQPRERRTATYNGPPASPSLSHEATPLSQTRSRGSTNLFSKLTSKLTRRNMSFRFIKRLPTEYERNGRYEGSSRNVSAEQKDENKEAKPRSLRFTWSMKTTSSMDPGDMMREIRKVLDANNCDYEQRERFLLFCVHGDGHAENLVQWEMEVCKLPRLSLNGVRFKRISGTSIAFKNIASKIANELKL

Compound	remaining binding at 10 µM [1]	remaining binding at 10 µM [2]	remaining binding at 10 µM [3]	remaining binding at 10 µM [4]	remaining binding at 10 µM [5]	remaining binding at 10 µM [6]	remaining binding at 10 µM [7]
CCN1CCN(Cc2ccc(NC(=O)c3ccc(C)c(NC(=O)c4cncc(-c5cccs5)c4)c3)cc2C(F)(F)F)CC1 [ALW-II-41-27]	> 30%	> 30%	0.15%	0.3%	1.6%	> 30%	> 30%
CCN1CCN(Cc2ccc(NC(=O)c3ccc(C)c(/C=C/c4cnc5[nH]ccc5c4Cl)c3)cc2C(F)(F)F)CC1 [HG-6-63-01, (E)-3-(2-(4-chloro-1H-pyrrolo[2,3-b]pyridin-5-yl)vinyl)-N-(4-((4-ethylpiperazin-1-yl)methyl)-3-(trifluoromethyl)phenyl)-4-methylbenzamide]	29%	29%	0.1%	0.95%	4.3%	> 30%	2.5%
CCN1CCN(Cc2ccc(NC(=O)c3ccc(C)c(C#Cc4cccnc4)c3)cc2C(F)(F)F)CC1 [XMD15-44]	> 30%	> 30%	0.05%	1.3%	7.4%	> 30%	> 30%

Reference: PMC4457528, “Identification of Novel Small Molecule Inhibitors of Oncogenic RET Kinase” (PLoS ONE, 2015)
